Laboratory results taken from patent US8492328B2, “Biomarkers and methods for determining sensitivity to insulin growth factor-1 receptor modulators” (Bristol-Myers Squibb Company, priority 2007, dated 2013).

Assays:
LG = assay: In vitro cellular proliferation assay ([3H]-thymidine incorporation); format: cell-based, human; details: LG (Ewing)
Experimental: (§1) All pediatric sarcoma and neuroblastoma cell lines were obtained from Dr. Lee Helman at NIH. All cell lines were grown in RPMI medium supplemented with Glutamax (Gibco/Invitrogen #61870-036), 10% inactivated fetal bovine serum (Gibco/Invitrogen #16140-071), 10 mM Hepes, penicillin and streptomycin.
(§2) Cells were plated at an optimized density for each cell line per well in 96-well microtiter Falcon plates, incubated overnight, and then exposed to a serial dilution of drug. After 72 hours incubation with drug at 37° C., cells were pulsed with 4 μCi/ml [6-3H] thymidine (Amersham Pharmacia Biotech, UK) for 3 hours, trypsinized, harvested onto UniFilter-96, GF/B plates (PerkinElmer, Boston, Mass.) and scintillation was measured on a TopCount NXT (Packard, Conn.). Results were expressed as an IC50, which is the drug concentration required to inhibit cell proliferation by 50% to that of untreated control cells. The mean IC50 and standard deviation (SD) from multiple tests for each cell line were calculated.

SK-LMS-1 = assay: as above; format: cell-based, human; details: SK-LMS-1 (Leiomyosarcoma)
Experimental: as §1, §2

TC32 = assay: as above; format: cell-based, human; details: TC32 (Ewing)
Experimental: as §1, §2

Rh41 cells = assay: Gene expression profiling of cells with compound 1 treatment; format: cell-based, human
RD-1 cells = assay: In vitro cellular proliferation assay, parental sensitive RD-1; format: cell-based; details: Homo sapiens, RD1; sensitive parental RD-1 (RMS) cells
Experimental: as §1, §2
(§3) Acquired resistance to anti-cancer agents is a major clinical problem. […] In order to identify markers that may contribute to acquired resistance to the IGF1R inhibitor, global gene expression profiles for both parental RD1 and resistant RD1 were analyzed using Affymetrix gene chip. […]

RD1-Resist cells = assay: In vitro cellular proliferation assay, compound 1 acquired resistant RD1; format: cell-based; details: Homo sapiens
Experimental: as §1, §2, §3

[1] = Homo sapiens, 72 hours with drug, read-out: IC50

## Cc1cc(N2CCOCC2)cc2[nH]c(-c3c(NC[C@@H](O)c4cccc(Cl)c4)cc[nH]c3=O)nc12 [Compound 1, (S)-4-(2-(3-chlorophenyl)-2-hydroxyethylamino)-3-(4-methyl-6-morpholino-1H-benzo[d]imidazol-2-yl)-pyridin-2(1-H)-one]
LG; [1]
  IC50: 63 nM
LG
  Sensitivity Classification: S (“S” means sensitive)
SK-LMS-1; [1]
  IC50: 500 nM
SK-LMS-1
  Sensitivity Classification: R (“R” means resistant to the corresponding compounds.)
TC32; Homo sapiens, TC-32, 72 hours with drug, read-out: IC50
  IC50: 55 nM
TC32
  Sensitivity Classification: S (“S” means sensitive)
Rh41 cells; compound 1 treated cells
  Ki-67 expression: Remarkable but not complete decrease
Rh41 cells; sensitive Rh41 cells
  expression of programmed cell death 4 (PDCD4): up-regulated
Rh41 cells; sensitive Rh41 cells, especially at 36 and 72 hours
  expression level of survivin: significantly reduced
Rh41 cells; sensitive cell Rh41
  genes with significant expression changes upon the drug treatment: 30%
RD-1 cells
  IC50: 238 nM
RD1-Resist cells
  IC50: 2000 nM
RD1-Resist cells; RD1, acquired resistant RD-1 cells
  IC50: 2000 nM
